From US12247032B2, “Substituted pyrazolo[1,5-a]pyrimidines as inhibitors of JAK kinases” (Genentech, Inc., priority 2019, dated 2025)

Key:
[1] = biological target: T1, recombinant human JAK1 kinase domain protein (Residues 854-1154) (Homo sapiens, UniProt P23458); assay: JAK1 biochemical assay (microfluidic mobility shift, peptide phosphorylation); conditions: 25 μM ATP, 1 nM total JAK1; Ki calculated from Ki app (tight-binding, competitive); read-out: Biochem JAK1 Ki
T1 construct: human JAK1 kinase domain protein (Residues 854-1154); purchased Proteros Biostructures GmbH (Martinsried, Germany); host or cells: insect cells
T1 sequence (P23458 854-1154): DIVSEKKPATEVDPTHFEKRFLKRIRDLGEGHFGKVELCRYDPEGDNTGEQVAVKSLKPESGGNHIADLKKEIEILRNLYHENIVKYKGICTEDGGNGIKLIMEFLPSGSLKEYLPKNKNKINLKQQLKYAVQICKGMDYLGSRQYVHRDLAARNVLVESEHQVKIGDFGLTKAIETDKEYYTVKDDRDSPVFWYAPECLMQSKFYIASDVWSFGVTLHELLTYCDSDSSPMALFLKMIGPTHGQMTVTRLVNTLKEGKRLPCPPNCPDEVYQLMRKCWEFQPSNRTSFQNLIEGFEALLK
Experimental: (§1) The in vitro biochemical assays quantify JAK-catalyzed phosphorylation of a synthetic peptide, as detected using a LabChip® EZ Reader II microfluidic mobility shift instrument (PerkinElmer; Waltham, MA). The substrate peptide Y-1B has the sequence 5-FAM-VALVDGYFRLTT-NH2. Y-1B is fluorescently labeled on the N-terminus with 5-FAM (5-carboxyfluorescein) and contains a single tyrosine residue (Y) that can be phosphorylated by JAK activity. The substrate peptide stock is prepared in DMSO at 5 mM. Purified recombinant human JAK1 kinase domain protein (Residues 854-1154) was expressed in insect cells and procured from Proteros Biostructures GmbH (Martinsried, Germany). Recombinant human JAK2 kinase domain protein (Residues 812-1132) was expressed in insect cells and purified at Genentech, Inc. (South San Francisco, CA).
(§2) The kinase reaction mixtures contained 100 mM 4-(2-hydroxyethyl)-1-piperazineethanesulfonic acid (HEPES) buffer (pH 7.2), 10 mM magnesium chloride, 0.015% Brij® 35, 4 mM dithiothreitol, 1.5 μM Y-1B peptide substrate, 25 μM adenosine triphosphate (ATP), 1 nM total JAK1 or 0.2 nM total JAK2, and up to 1000 nM test compound in a final concentration of 2% (volume to volume [v/v]) DMSO. In each titration experiment, test compound was tested in duplicate at each of the twelve concentrations. Blank reactions contained ATP, peptide, and DMSO, but no JAK or test compound, whereas uninhibited control reactions contained ATP, peptide, JAK, and DMSO, but no test compound.
(§3) Peptide plus ATP mixture (24 μL) was added to 1 μL of test compound in DMSO (or DMSO alone). The reactions were initiated by adding 25 μL of JAK enzyme to the inhibitor/peptide/ATP mixture before thoroughly mixing the resultant solution. Reactions were incubated at room temperature (22° C.-23° C.) in a final volume of 50 μL per well in 384-well plates. After a 30-minute incubation, the reactions were stopped by adding 25 μL of 150 mM ethylenediaminetetraacetic acid in 100 mM HEPES buffer (pH 7.2) containing 0.015% Brij 35 to each well.
(§4) In each reaction, the residual Y-1B substrate and the phospho-peptide product generated were separated using the EZ Reader 1 instrument. Electrophoretic separation of molecules of product from molecules of substrate was achieved using downstream and upstream voltages of −500 and −2600 V, respectively, at an operating pressure of −1.3 psi. The 5-FAM group present on both the substrate and product peptides was excited at 488 nm, the fluorescence was detected at 530 nm, and the peak heights were reported.
(§5) The extent (or percent) of conversion of substrate to product was calculated from the corresponding peak heights in the electropherogram using HTS Well Analyzer software, Version 5.2 (PerkinElmer), and the following equation (Equation 1): % conversion=[P[…](S+P)]×100 Equation 1 where S and P represent the peak heights of the substrate and product, respectively. After any baseline signal from blank wells containing no JAK was subtracted from the signal of all test wells, the % conversion data were converted to fractional activity as shown in Equation 2, where νi and νo are the % conversion in the presence and absence of test compound, respectively. The % conversion observed in the uninhibited control reactions containing JAK and DMSO vehicle, but no test compound, was defined to have fractional activity=1 (with no inhibitor present, νi=νo), whereas blank wells with no JAK were defined as having fractional activity=0. Fractional activity was plotted against test compound concentration and the data were fitted using XLfit software (IDBS; Guildford, United Kingdom) to a tight-binding apparent inhibition constant (Ki^app) quadratic equation (see Equation 2) (Williams J W, Morrison J F. The kinetics of reversible tight-binding inhibition. Methods Enymol 1979; 63:437-67), which was used to calculate fractional activity and Ki^app […]

[2] = test system: JAK1 (IL-13-stimulated STAT6 phosphorylation in BEAS-2B cells); assay: P-STAT6 BEAS-2B+IL-13 cell assay; format: cell-based, human; conditions: Homo sapiens, BEAS-2B, 1 h, 1 hour compound, IL-13 15 minutes, IC50 by four-parameter fit, read-out: Cellular JAK1 PSTAT6 BEAS2B + IL13
Experimental: In order to study the effect of JAK1 inhibitors in a cell line that is relevant to the cell biology of human asthma, an IL-13-stimulated STAT6 phosphorylation assay in the human lung bronchial epithelial BEAS-2B cell line was developed.
BEAS-2B cells (ATCC® CRL-9609™) were grown in Bronchial Epithelial Growth Medium (BEGM) (Lonza Catalog No. CC-3170; Walkersville, MD; or PromoCell Catalog No. C-21060; Heidelberg, Germany). Test compound stock solutions (0.5 mM in DMSO) were serially diluted 1:2 in DMSO to generate a 10-point concentration curve (at 500× test concentration), which was further diluted by a 50-fold dilution step in BEGM to generate a 10× concentration curve (in 2% DMSO). Cells were plated at 100,000 cells/well in 200 μL of BEGM in 96-well plates and incubated for 48 hours at 37° C. in a humidified incubator. Medium was aspirated from the cells and replaced with 70 μL of fresh BEGM. Diluted test compound (10 μL; or 2% DMSO in assay medium) was added to the cells, and the plates were incubated for 1 hour at 37° C. in a humidified incubator. Twenty μL of 250 ng/mL human recombinant IL-13 (Bio Techne Catalog No. 213-ILB) was then added to the cells and incubated for 15 minutes at 37° C. Medium was aspirated from the cells and 60 μL of ice-cold 1×cell lysis buffer (Cell Signaling Technologies; Catalog No. 9803S) containing 1 mM PMSF was added to the cells. Assay plates were incubated at −80° C. for at least 1 hour. P-STAT6 was measured by coating GAR plates (MSD; Catalog No. L45RA-1) with rabbit anti-human total STAT6 antibody (Cell Signaling Technologies; Catalog No. 9362S), incubating the cell lysates in the coated plates overnight at 4° C., and then detecting with mouse anti-phospho-STAT6 (Tyr641) Clone 16E12 antibody (Millipore; Catalog No. 05-590, custom labeled by MSD with SULFO-tag) using standard MSD plate processing, washing, and detection protocols. Plates were read on the MESO SECTOR S600.
Data analysis was performed by subtracting negative control values from all wells and determining percent of control using the positive control values; the IC50 was determined with a four-parameter logistic fit model as shown in Equation 4.

[3] = biological target: T2, Recombinant human JAK2 kinase domain protein (Residues 812-1132) (Homo sapiens, UniProt O60674); assay: JAK2 biochemical assay (microfluidic mobility shift, peptide phosphorylation); conditions: 25 μM ATP, 0.2 nM total JAK2; Ki calculated from Ki app (tight-binding, competitive); read-out: Biochem JAK2 Ki
T2 construct: human JAK2 kinase domain protein (Residues 812-1132); made in house; host or cells: insect cells
T2 sequence (O60674 812-1132): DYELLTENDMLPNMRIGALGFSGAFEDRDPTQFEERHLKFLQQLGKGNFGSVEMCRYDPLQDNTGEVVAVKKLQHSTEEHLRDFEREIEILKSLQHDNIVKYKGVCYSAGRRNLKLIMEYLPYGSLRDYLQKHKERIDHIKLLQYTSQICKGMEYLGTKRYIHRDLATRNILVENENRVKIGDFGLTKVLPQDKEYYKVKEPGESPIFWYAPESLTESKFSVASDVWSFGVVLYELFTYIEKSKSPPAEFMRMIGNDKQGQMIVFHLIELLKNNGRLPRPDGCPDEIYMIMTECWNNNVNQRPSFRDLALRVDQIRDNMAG
Experimental: as §1, §2, §3, §4, §5

Row | Structure (SMILES) | Ki [1] [nM] | IC50 [2] [nM] | Ki [3] [nM]
1 | CN(C)CC(F)CN1CC(n2nnc(Cn3cc(NC(=O)c4cnn5cccnc45)c(-c4cc(OC(F)F)ccc4OC(F)F)n3)n2)C1 (single isomer, unassigned) [Example 83, N-[3-[2,5-bis(difluoromethoxy)phenyl]-1-[[2-[1-[3-(dimethylamino)-2-fluoro-propyl]azetidin-3-yl]tetrazol-5-yl]methyl]pyrazol-4-yl]pyrazolo[1,5-a]pyrimidine-3-carboxamide] | 0.43 | 17 | 0.39
2 | CN(C)C1CCC(n2nnc(Cn3cc(NC(=O)c4cnn5cccnc45)c(-c4cc(OC(F)F)ccc4OC(F)F)n3)n2)CC1 (stereo not drawn) [Example 66, N-[3-[2,5-bis(difluoromethoxy)phenyl]-1-[[2-[4-(dimethylamino)cyclohexyl]tetrazol-5-yl]methyl]pyrazol-4-yl]pyrazolo[1,5-a]pyrimidine-3-carboxamide] | 0.41 | 32 | 0.3
3 | CN(C)CCN1CC(n2nnc(Cn3cc(NC(=O)c4cnn5cccnc45)c(-c4cc(C5CC5)ccc4OC(F)F)n3)n2)C1 [Example 50, N-[3-[5-cyclopropyl-2-(difluoromethoxy)phenyl]-1-[[2-[1-[2-(dimethylamino)ethyl]azetidin-3-yl]tetrazol-5-yl]methyl]pyrazol-4-yl]pyrazolo[1,5-a]pyrimidine-3-carboxamide] | 0.5 | 16 | 0.44
4 | CNCCN1CC(n2nnc(Cn3cc(NC(=O)c4cnn5cccnc45)c(-c4cc(OC(F)F)ccc4OC(F)F)n3)n2)C1 [Example 34, N-[3-[2,5-bis(difluoromethoxy)phenyl]-1-[[2-[1-[2-(methylamino)ethyl]azetidin-3-yl]tetrazol-5-yl]methyl]pyrazol-4-yl]pyrazolo[1,5-a]pyrimidine-3-carboxamide] | 0.4 | 180 | 0.29
5 | CN1CCC(n2nnc(Cn3cc(NC(=O)c4cnn5cccnc45)c(-c4cc(OC(F)F)ccc4OC(F)F)n3)n2)C1 (single isomer, unassigned) [Example 29, N-[3-[2,5-bis(difluoromethoxy)phenyl]-1-[[2-(1-methylpyrrolidin-3-yl)tetrazol-5-yl]methyl]pyrazol-4-yl]pyrazolo[1,5-a]pyrimidine-3-carboxamide] | 0.43 | 15 | 0.25
6 | CN(C)[C@H]1C[C@@H](N2CC(n3nnc(Cn4cc(NC(=O)c5cnn6cccnc56)c(-c5cc(OC(F)F)ccc5OC(F)F)n4)n3)C2)C1 [Example 71, N-[3-[2,5-bis(difluoromethoxy)phenyl]-1-[[2-[1-[3-(dimethylamino)cyclobutyl]azetidin-3-yl]tetrazol-5-yl]methyl]pyrazol-4-yl]pyrazolo[1,5-a]pyrimidine-3-carboxamide] | 1.4 | 23 | 1.1
7 | NC1CCC(n2nnnc2Cn2cc(NC(=O)c3cnn4cccnc34)c(-c3cc(OC(F)F)ccc3OC(F)F)n2)CC1 (stereo not drawn) [Example 69, N-[1-[[1-(4-aminocyclohexyl)tetrazol-5-yl]methyl]-3-[2,5-bis(difluoromethoxy)phenyl]pyrazol-4-yl]pyrazolo[1,5-a]pyrimidine-3-carboxamide] | 0.75 | ≥ 1000 | 0.97
8 | O=C(Nc1cn(Cc2nnnn2C2CCNCC2)nc1-c1cc(OC(F)F)ccc1OC(F)F)c1cnn2cccnc12 [Example 24, N-[3-[2,5-bis(difluoromethoxy)phenyl]-1-[[1-(4-piperidyl)tetrazol-5-yl]methyl]pyrazol-4-yl]pyrazolo[1,5-a]pyrimidine-3-carboxamide] | 0.83 | 470 | 0.91
9 | CN(C)C1(CCN2CC(n3nnc(Cn4cc(NC(=O)c5cnn6cccnc56)c(-c5cc(OC(F)F)ccc5OC(F)F)n4)n3)C2)CC1 [Example 80, N-[3-[2,5-bis(difluoromethoxy)phenyl]-1-[[2-[1-[2-[1-(dimethylamino)cyclopropyl]ethyl]azetidin-3-yl]tetrazol-5-yl]methyl]pyrazol-4-yl]pyrazolo[1,5-a]pyrimidine-3-carboxamide; formic acid] | 0.46 | 40 | 0.41
10 | CSc1ccc(OC(F)F)c(-c2nn(Cc3nnn(CCN(C)C)n3)cc2NC(=O)c2cnn3cccnc23)c1 [Example 36, N-[3-[2-(difluoromethoxy)-5-methylsulfanyl-phenyl]-1-[[2-[2-(dimethylamino)ethyl]tetrazol-5-yl]methyl]pyrazol-4-yl]pyrazolo[1,5-a]pyrimidine-3-carboxamide] | 0.37 | 17 | 0.22
11 | CN(C)CCn1nnnc1Cn1cc(NC(=O)c2cnn3cccnc23)c(-c2cc3c(cc2OC(F)F)NCCO3)n1 [Example 44, N-[3-[6-(difluoromethoxy)-3,4-dihydro-2H-1,4-benzoxazin-7-yl]-1-[[1-[2-(dimethylamino)ethyl]tetrazol-5-yl]methyl]pyrazol-4-yl]pyrazolo[1,5-a]pyrimidine-3-carboxamide] | 0.71 | 25 | 0.47
12 | CN(C)CCCN1CC(n2nnnc2Cn2cc(NC(=O)c3cnn4cccnc34)c(-c3cc(OC(F)F)ccc3OC(F)F)n2)C1 [Example 65, N-[3-[2,5-bis(difluoromethoxy)phenyl]-1-[[1-[1-[3-(dimethylamino)propyl]azetidin-3-yl]tetrazol-5-yl]methyl]pyrazol-4-yl]pyrazolo[1,5-a]pyrimidine-3-carboxamide] | 0.41 | 660 | 0.38
